One experiment deals with tumor cell lines. The note with it: broad range of tumor cell lines; Ravaud et al. 2005; cited from earlier work.
The subject of experiment [1] is murine renal cell carcinoma. The note with it: Drevs et al. 2003; cited from earlier work.
A further experiment deals with HepG2 cells. The note with it: Hasmann et al. 2003; cited from earlier work.
A further experiment concerns mouse mammary carcinoma. The note with it: in vivo; cited from earlier work.
The next experiment has as its target T1, NAMPT (Homo sapiens, UniProt P43490).
T1 construct: His tag; host or cells: E. coli
Kind of experiment: Biochemical inhibition assay: NAMPT enzymatic reaction, NMN quantified by mass spectrometry. The note with it: NAMPT enzymatic reaction; read-out: Biochem IC50. An outline of the steps:
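Inhibition of E. coli-expressed His-tagged human NAMPT, measured as NMN formation by mass spectrometry after a 30 min room-temperature reaction containing 1 μM NAM, 100 μM PRPP and 2.5 mM ATP.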

The subject of experiment [2] is A2780 cells. The experiment in a line: Xenograft studies: A2780 tumors s.c. in C.B-17-Igh-1b-Prkdc scid mice. The note with it: female scid mice, p.o. BID for 5 or 10 days, dose selected from MTD study. Type of experiment: in vivo. The protocol: C.B-17-Igh-1b-Prkdc^scid mice (female) were injected s.c. with 5×10^6 A2780 cells (NCI) in the left flank. 10-12 days later when tumors reached 100-200 mm3 in size, mice were randomized into treatment groups of 8 mice per group including vehicle control and reference standard groups. The compounds were formulated in 60:30:10 PEG-400: D5W: Ethanol and administered p.o., at the dose volume of 10 ml/kg BID for a duration of 5 or 10 days. The dose used for efficacy was selected from the MTD (Maximum Tolerated Dose) study. Mice were weighed and tumors measured using vernier calipers every alternate day. Tumor volume was calculated according to the formula (length×width^2)/2. All animal work was approved by the Institutional Animal Care and Use Committee of Biological Resource Centre, Singapore.

The subject of experiment [3] is A2780 cells. The experiment in a line: In-vitro cell proliferation assay (SRB), A2780 cells. The experiment is classed as cell-based. The note with it: Homo sapiens, A2780, 72 h, A2780 cells, 72 hours, SRB assay; read-out: A2780 IC50. The essentials:
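Read-out is SRB absorbance at 570 nm on TCA-fixed cells after 72 hours of compound treatment at 37° C. in 5% CO2. Background from a media-only plate is subtracted, and % inhibition is interpolated between two tested concentrations.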
Background: Sulforhodamine B stains cellular protein and so reports cell mass.

The subject of a further experiment is U251 cells. The experiment in a line: In-vitro cell proliferation assay (SRB), U251 cells. The experiment is classed as cell-based. The note with it: Homo sapiens, U-251, 72 hours. The protocol: After overnight incubation at 37° C. and 5% CO2, the compound titrations were performed in a separate dilution plate by serially diluting the compounds in DMSO to make a 1000× stock. The compounds were then further diluted to 10× final concentration in culture media, whereupon 20 μL of each dilution was added to the plated cells with controls (e.g. DMSO and blank) to make a final volume of 5 200 μL. The final DMSO concentration in each well was 0.1%. The plates were then incubated for 72 hours at 37° C. in a 5% CO2 incubator. The number of viable cells was then assessed using sulforhodamine B (SRB) assay. Cells were fixed at 4° C. for 1 hour with the addition of 50 μL 30% trichloroacetic acid (TCA) to make a final concentration of 6% 10 TCA. The plates were washed four times with H2O and allowed to dry for at least 1 hour, whereupon 100 μL of a 4% SRB in 1% acetic acid solution was added to each well and incubated at room temperature for at least 30 minutes. The plates were then washed three times with 1% acetic acid, dried, and treated with 100 μL of 10 mM Tris-Base solution. The plates were then read in a microplate reader at an absorbance of 570 nm. 15 Background was generated on a separate plate with media only. Method for Determining % Inhibition First, the signals from the background plate are averaged, then the background was subtracted from the test plates.

As a reminder, the IC50 is the concentration at which inhibition is half-maximal.

T1 sequence (P43490 whole entry): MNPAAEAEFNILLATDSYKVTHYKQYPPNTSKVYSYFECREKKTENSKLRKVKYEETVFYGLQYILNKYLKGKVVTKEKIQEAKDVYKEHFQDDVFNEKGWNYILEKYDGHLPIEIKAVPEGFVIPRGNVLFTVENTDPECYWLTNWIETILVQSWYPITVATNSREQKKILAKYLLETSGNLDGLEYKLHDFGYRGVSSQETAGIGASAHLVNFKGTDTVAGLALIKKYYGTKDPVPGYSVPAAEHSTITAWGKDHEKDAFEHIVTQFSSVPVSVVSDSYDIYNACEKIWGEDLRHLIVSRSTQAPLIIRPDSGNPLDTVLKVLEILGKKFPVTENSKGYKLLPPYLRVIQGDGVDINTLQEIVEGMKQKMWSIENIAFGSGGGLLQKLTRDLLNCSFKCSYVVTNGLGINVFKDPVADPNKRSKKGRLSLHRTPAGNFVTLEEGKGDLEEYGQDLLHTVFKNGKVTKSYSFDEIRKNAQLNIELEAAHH

As to `N#C/N=C(\NCCCCCCOc1ccc(Cl)cc1)Nc1ccncc1` [CHS-828], the “Cell growth inhibition in tumor cell lines” value in the experiment on tumor cell lines is given as “potently inhibit cell growth”.

Take `O=C(/C=C/c1cccnc1)NCCCCC1CCN(C(=O)c2ccccc2)CC1` [FK866, (E)-N-[4-(1-benzoylpiperidin-4-yl)butyl]-3-(pyridine-3-yl)-acrylamide]: the “Activity in murine renal cell carcinoma model” value in experiment [1] was “anti-tumor, antimetastatic, and anti-angiogenic activities”. In addition, in the experiment with HepG2 cells, the “Apoptosis in HepG2 cells” value is “induces apoptosis”. In addition, the “Tumor growth in mouse mammary carcinoma model” value with mouse mammary carcinoma is listed as “delay in tumor growth”.

Consider `O=C(NCc1ccc(S(=O)(=O)c2cccc(Cl)c2)cc1)c1cc2cnccc2[nH]1` [N-({4-[(3-chlorobenzene)sulfonyl]phenyl}methyl)-1H-pyrrolo[3,2-c]pyridine-2-carboxamide], for which the 50% inhibitory concentration (IC50) was found to be 5 nM at NAMPT and 3 nM in the experiment with A2780 cells [3]. The “Effect on tumor in A2780 xenograft” value in the experiment on A2780 cells [2] is reported as “tumor regression”.

In the case of `CC(=O)c1ccc(S(=O)(=O)c2ccc(CNC(=O)c3cc4cnccc4[nH]3)cc2)cc1` [N-({4-[(4-acetylbenzene)sulfonyl]phenyl}methyl)-1H-pyrrolo[3,2-c]pyridine-2-carboxamide], the IC50 was 7 nM at NAMPT and 3 nM in the experiment on A2780 cells [3]. For the same compound, in the experiment with A2780 cells [2], the “Effect on tumor in A2780 xenograft” value was “tumor regression”.

For `O=C(NCc1ccc(S(=O)(=O)c2ccc(F)cc2)cc1)c1cc2cnccc2[nH]1` [N-({4-[(4-fluorobenzene)sulfonyl]phenyl}methyl)-1H-pyrrolo[3,2-c]pyridine-2-carboxamide], the IC50 at NAMPT is 38 nM; in the experiment with A2780 cells [3] it was 8 nM. Besides, in the experiment on A2780 cells [2], the “Effect on tumor in A2780 xenograft” value is given as “tumor regression”.

As to `O=C(NCc1ccc(S(=O)(=O)c2ccc(F)cc2)cc1)c1ccc2nccn2c1` [N-({4-[(4-fluorobenzene)sulfonyl]phenyl}methyl)imidazo[1,2-a]pyridine-6-carboxamide], the concentration for half-maximal inhibition (IC50) on NAMPT was found to be 23 nM; with A2780 cells [3] it was 11 nM. Besides, the “Effect on tumor in A2780 xenograft” value in the experiment on A2780 cells [2] is “tumor regression”.

`O=C(NCc1ccc(S(=O)(=O)c2ccccc2OC(F)(F)F)cc1)c1cc2cnccc2[nH]1` [N-[(4-{[2-(trifluoromethoxy)benzene]sulfonyl}phenyl)methyl]-1H-pyrrolo[3,2-c]pyridine-2-carboxamide]: the IC50 on NAMPT is 16 nM; in the experiment with A2780 cells [3], 3 nM. Also, the “Effect on tumor in A2780 xenograft” value in the experiment on A2780 cells [2] is reported as “tumor regression”.

`O=C(NCc1ccc(S(=O)(=O)Nc2ccccc2OC(F)(F)F)cc1)c1cc2cnccc2[nH]1` [N-[(4-{[2-(trifluoromethoxy)phenyl]sulfamoyl}phenyl)methyl]-1H-pyrrolo[3,2-c]pyridine-2-carboxamide]: the results for the IC50 at NAMPT and in the experiment with A2780 cells [3] were 6 nM and 1 nM, respectively. Further, the “Effect on tumor in A2780 xenograft” value in the experiment with A2780 cells [2] is listed as “tumor stasis”.

As to `COc1cc(-n2cccn2)ccc1S(=O)(=O)c1ccc(CNC(=O)c2cc3cnccc3[nH]2)cc1` [N-[(4-{[2-methoxy-4-(1H-pyrazol-1-yl)benzene]sulfonyl}phenyl)methyl]-1H-pyrrolo[3,2-c]pyridine-2-carboxamide], the IC50 at NAMPT came out at 16 nM; in the experiment with A2780 cells [3], 2 nM. For the same compound, the “Effect on tumor in A2780 xenograft” value in the experiment on A2780 cells [2] is on record as “delayed tumor growth”.

In the case of `O=C(NCc1ccc(S(=O)(=O)c2ccccc2)cc1)c1cc2cnccc2[nH]1` [N-{[4-(benzenesulfonyl)phenyl]methyl}-1H-pyrrolo[3,2-c]pyridine-2-carboxamide], the “Effect on tumor in A2780 xenograft” value in the experiment with A2780 cells [2] was “tumor regression”. Besides, half-maximal inhibition with U251 cells (IC50) required 40 nM.

In the case of `O=C(NCc1ccc(S(=O)(=O)c2ccccc2)cc1)c1ccc2nccn2c1` [N-{[4-(benzenesulfonyl)phenyl]methyl}imidazo[1,2-a]pyridine-6-carboxamide], the concentration for half-maximal inhibition (IC50) on NAMPT stood at 21 nM; in the experiment on A2780 cells [3], 11 nM. The “Effect on tumor in A2780 xenograft” value with A2780 cells [2] is “tumor regression”.

As for `O=C(NCc1ccc(S(=O)(=O)c2ccccc2)cc1)c1cc2ccncc2s1` [N-{[4-(benzenesulfonyl)phenyl]methyl}thieno[2,3-c]pyridine-2-carboxamide], the IC50 worked out at 11 nM on NAMPT and 12 nM in the experiment with A2780 cells [3]. Further, the “Effect on tumor in A2780 xenograft” value in the experiment with A2780 cells [2] was “tumor regression”.

`O=C(NCc1ccc(S(=O)(=O)N2CCNCC2)cc1)c1ccc2nccn2c1` [N-{[4-(piperazine-1-sulfonyl)phenyl]methyl}imidazo[1,2-a]pyridine-6-carboxamide] had an IC50 with U251 cells of 556 nM.

As to `O=C(NCc1ccc(S(=O)(=O)c2cccnc2)cc1)c1cc2cnccc2[nH]1` [N-{[4-(pyridine-3-sulfonyl)phenyl]methyl}-1H-pyrrolo[3,2-c]pyridine-2-carboxamide], the IC50 on NAMPT worked out at 21 nM; in the experiment on A2780 cells [3], 48 nM. In addition, in the experiment with A2780 cells [2], the “Effect on tumor in A2780 xenograft” value is “delayed tumor growth”.

For the compound `O=C(NCc1ccc(S(=O)(=O)c2ccccc2)cn1)c1cc2cnccc2[nH]1` [N-{[5-(benzenesulfonyl)pyridin-2-yl]methyl}-1H-pyrrolo[3,2-c]pyridine-2-carboxamide], in the experiment with U251 cells, the concentration for half-maximal inhibition (IC50) worked out at 35 nM.

In the case of `O=C(NCc1ccc(S(=O)(=O)c2ccccc2)nc1)c1cc2cnccc2[nH]1` [N-{[6-(benzenesulfonyl)pyridin-3-yl]methyl}-1H-pyrrolo[3,2-c]pyridine-2-carboxamide], the IC50 in the experiment on U251 cells is greater than 2000 nM.

(Values after patent publication US12336981B2, “Compounds and compositions for the inhibition of NAMPT” (Valo Health, Inc., priority 2010, dated 2025).)
